These are literature values, as cited in US20240189272A1, “FORMULATIONS AND COMPOSITIONS OF DOCETAXEL” (Zhuhai Beihai Biotech Co., Ltd., priority 2017, published 2024).

“Also recorded” adds a separate entry of the source.

The conditions of series [1]: attributed in part to polysorbate 80.

As for `CC(=O)O[C@@]12CO[C@@H]1C[C@H](O)[C@@]1(C)C(=O)[C@H](O)C3=C(C)[C@@H](OC(=O)[C@H](O)[C@@H](NC(=O)OC(C)(C)C)c4ccccc4)C[C@@](O)([C@@H](OC(=O)c4ccccc4)[C@H]21)C3(C)C` [docetaxel], the water solubility entry was “practically insoluble in water; also recorded: very poor water solubility”. Further, in the series on plasma proteins (in three cancer patients), the “in vitro binding to plasma proteins” value is recorded as “approximately 97%”. The protein bound entry in the series on plasma proteins (in vitro studies, mainly to α1-acid glycoprotein, albumin, and lipoproteins) is “about 94%”. Further, in the series on microtubules, the “potency in inhibiting microtubule depolymerization relative to paclitaxel” value is recorded as “about twice as potent as paclitaxel”. In addition, the “side-effects associated with administration” value in series [1] is “unpredictable (acute) hypersensitivity reactions and cumulative fluid retention”.
